Experimental data as given in the supplement of paper PMC10307832.

Columns and labels:
Experiment in all cases: relative viability (nuclei count vs DMSO), 5 days (fraction); higher = more cells survive
[1] = tested on: LCLC-97TM1
In short: (§1)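 Lung cancer cell lines were pin-tool dosed in 1536-well plates on the day after seeding, with either a lone drug or a fixed anchor-drug dose plus five library-drug doses (not always all listed) in √10 steps. Nuclei were counted on 4× images after 5 days. Relative viability is the ratio of treated-well to vehicle-well nuclei counts, with each value a median of duplicate plates.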

[2] = tested on: NCI-H2085
In short: as §1

[3] = tested on: NCI-H1944
In short: as §1

[4] = tested on: NCI-H3122
In short: as §1

[5] = tested on: NCI-H1666
In short: as §1

[6] = tested on: NCI-H441
In short: as §1

[7] = tested on: NCI-H2087
In short: as §1

[8] = tested on: NCI-H2126
In short: as §1

[9] = tested on: EPLC-272H
In short: as §1

[10] = tested on: COR-L23
In short: as §1

[11] = tested on: HCC-78
In short: as §1

[12] = tested on: LXF-289
In short: as §1

[13] = tested on: NCI-H1793
In short: as §1

[14] = tested on: ChaGo-K-1
In short: as §1

[15] = tested on: PC-14
In short: as §1

[16] = tested on: HOP-62
In short: as §1

[17] = tested on: NCI-H1437
In short: as §1

[18] = tested on: NCI-H1650
In short: as §1

[19] = tested on: NCI-H596
In short: as §1

[20] = tested on: HARA
In short: as §1

[21] = tested on: NCI-H1395
In short: as §1

[22] = tested on: H3255
In short: as §1

Cc1cn(-c2cc(NC(=O)c3ccc(C)c(Nc4nccc(-c5cccnc5)n4)c3)cc(C(F)(F)F)c2)cn1 [Nilotinib] + CC1(C)CCC(c2ccc(Cl)cc2)=C(CN2CCN(c3ccc(C(=O)NS(=O)(=O)c4ccc(N[C@H](CCN5CCOCC5)CSc5ccccc5)c(S(=O)(=O)C(F)(F)F)c4)cc3)CC2)C1 [Navitoclax] (partner 0.5 µM)
relative viability ([1]; first compound 0.001 µM): 0.322
relative viability ([1]; first compound 0.003162 µM): 0.425
relative viability ([1]; first compound 0.01 µM): 0.478
relative viability ([1]; first compound 0.03162 µM): 0.445
relative viability ([1]; first compound 0.1 µM): 0.379
relative viability ([2]; first compound 0.001 µM): 1.12
relative viability ([2]; first compound 0.003162 µM): 1.19
relative viability ([2]; first compound 0.01 µM): 1.38
relative viability ([2]; first compound 0.03162 µM): 0.957
relative viability ([2]; first compound 0.1 µM): 1.03
relative viability ([3]; first compound 0.001 µM): 1.03
relative viability ([3]; first compound 0.003162 µM): 1.13
relative viability ([3]; first compound 0.01 µM): 1.22
relative viability ([3]; first compound 0.03162 µM): 1.12
relative viability ([3]; first compound 0.1 µM): 0.987
relative viability ([4]; first compound 0.001 µM): 1.09
relative viability ([4]; first compound 0.003162 µM): 1.12
relative viability ([4]; first compound 0.01 µM): 1.09
relative viability ([4]; first compound 0.1 µM): 0.831
relative viability ([5]; first compound 0.001 µM): 0.994
relative viability ([5]; first compound 0.003162 µM): 1.24
relative viability ([5]; first compound 0.01 µM): 0.98
relative viability ([5]; first compound 0.03162 µM): 0.895
relative viability ([5]; first compound 0.1 µM): 0.759
relative viability ([6]; first compound 0.001 µM): 0.499
relative viability ([6]; first compound 0.003162 µM): 0.667
relative viability ([6]; first compound 0.01 µM): 0.568
relative viability ([6]; first compound 0.1 µM): 0.493
relative viability ([7]; first compound 0.001 µM): 0.795
relative viability ([7]; first compound 0.003162 µM): 0.86
relative viability ([7]; first compound 0.01 µM): 0.997
relative viability ([7]; first compound 0.03162 µM): 0.93
relative viability ([7]; first compound 0.1 µM): 0.734
relative viability ([8]; first compound 0.001 µM): 0.861
relative viability ([8]; first compound 0.003162 µM): 0.891
relative viability ([8]; first compound 0.01 µM): 0.89
relative viability ([8]; first compound 0.03162 µM): 0.846
relative viability ([8]; first compound 0.1 µM): 0.82
relative viability ([9]; first compound 0.001 µM): 1.1
relative viability ([9]; first compound 0.003162 µM): 1.32
relative viability ([9]; first compound 0.01 µM): 1.5
relative viability ([9]; first compound 0.03162 µM): 0.804
relative viability ([9]; first compound 0.1 µM): 1.28
relative viability ([10]; first compound 0.001 µM): 0.835
relative viability ([10]; first compound 0.003162 µM): 1.17
relative viability ([10]; first compound 0.01 µM): 1.18
relative viability ([10]; first compound 0.03162 µM): 0.953
relative viability ([10]; first compound 0.1 µM): 0.864
relative viability ([11]; first compound 0.001 µM): 0.876
relative viability ([11]; first compound 0.003162 µM): 0.692
relative viability ([11]; first compound 0.01 µM): 0.945
relative viability ([11]; first compound 0.03162 µM): 0.724
relative viability ([11]; first compound 0.1 µM): 0.737
relative viability ([12]; first compound 0.001 µM): 0.904
relative viability ([12]; first compound 0.003162 µM): 1.09
relative viability ([12]; first compound 0.01 µM): 1.05
relative viability ([12]; first compound 0.03162 µM): 0.855
relative viability ([12]; first compound 0.1 µM): 0.878
relative viability ([13]; first compound 0.003162 µM): 0.452
relative viability ([13]; first compound 0.01 µM): 0.587
relative viability ([13]; first compound 0.03162 µM): 0.385
relative viability ([13]; first compound 0.1 µM): 0.275
relative viability ([14]; first compound 0.001 µM): 1.47
relative viability ([14]; first compound 0.003162 µM): 0.924
relative viability ([14]; first compound 0.01 µM): 1.06
relative viability ([14]; first compound 0.03162 µM): 0.754
relative viability ([14]; first compound 0.1 µM): 0.787
relative viability ([15]; first compound 0.003162 µM): 1.09
relative viability ([15]; first compound 0.01 µM): 1.19
relative viability ([15]; first compound 0.03162 µM): 0.882
relative viability ([15]; first compound 0.1 µM): 1.07
relative viability ([16]; first compound 0.001 µM): 0.832
relative viability ([16]; first compound 0.003162 µM): 1.05
relative viability ([16]; first compound 0.01 µM): 1.24
relative viability ([16]; first compound 0.03162 µM): 0.94
relative viability ([16]; first compound 0.1 µM): 0.454
relative viability ([17]; first compound 0.001 µM): 1.02
relative viability ([17]; first compound 0.003162 µM): 1.34
relative viability ([17]; first compound 0.01 µM): 1.15
relative viability ([17]; first compound 0.03162 µM): 0.766
relative viability ([17]; first compound 0.1 µM): 0.925
relative viability ([18]; first compound 0.001 µM): 1.15
relative viability ([18]; first compound 0.003162 µM): 1.26
relative viability ([18]; first compound 0.01 µM): 1.45
relative viability ([18]; first compound 0.03162 µM): 0.99
relative viability ([18]; first compound 0.1 µM): 1.11
relative viability ([19]; first compound 0.001 µM): 0.924
relative viability ([19]; first compound 0.003162 µM): 1.12
relative viability ([19]; first compound 0.01 µM): 1.13
relative viability ([19]; first compound 0.03162 µM): 0.673
relative viability ([19]; first compound 0.1 µM): 0.922
relative viability ([20]; first compound 0.001 µM): 1.07
relative viability ([20]; first compound 0.003162 µM): 1.26
relative viability ([20]; first compound 0.01 µM): 1.24
relative viability ([20]; first compound 0.03162 µM): 1.06
relative viability ([20]; first compound 0.1 µM): 1.15
relative viability ([21]; first compound 0.001 µM): 1.03
relative viability ([21]; first compound 0.003162 µM): 0.815
relative viability ([21]; first compound 0.01 µM): 1.1
relative viability ([21]; first compound 0.03162 µM): 1.11
relative viability ([21]; first compound 0.1 µM): 1.05
relative viability ([22]; first compound 0.001 µM): 0.508
relative viability ([22]; first compound 0.003162 µM): 0.479
relative viability ([22]; first compound 0.01 µM): 0.541
relative viability ([22]; first compound 0.03162 µM): 0.246
relative viability ([22]; first compound 0.1 µM): 0.382
